SMILES strings stand for the structures.

Data on one molecule can be found in patent publication US11787847B2, “Method of identifying malodor modulating compounds” (FIRMENICH SA, priority 2017, dated 2023).

The target in one experiment is T1, human receptor OR52N2 (Homo sapiens, UniProt Q8NGI0).
T1 construct: The receptors were tagged with a FLAG®-Rho tag combination; expressed in transfected cells
T1 sequence (Q8NGI0 1-321): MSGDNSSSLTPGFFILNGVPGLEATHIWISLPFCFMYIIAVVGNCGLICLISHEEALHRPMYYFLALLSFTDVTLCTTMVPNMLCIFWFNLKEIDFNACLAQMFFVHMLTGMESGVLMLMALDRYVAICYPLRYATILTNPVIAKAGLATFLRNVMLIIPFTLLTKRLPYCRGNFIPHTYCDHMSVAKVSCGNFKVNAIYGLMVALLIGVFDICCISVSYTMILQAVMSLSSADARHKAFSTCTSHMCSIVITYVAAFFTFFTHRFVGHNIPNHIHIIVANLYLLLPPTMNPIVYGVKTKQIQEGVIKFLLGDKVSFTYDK
The experiment in a line: cell-based dose-response, Ca2+ increase (Calcium 5 dye, FLIPR), HEK293T line stably expressing FLAG-Rho tagged receptor with human Gα15. Conditions: FIG. 3, Example 3, SEQ ID NO: 38, stable HEK293T. On the procedure: (§1) Functional dose-response experiments were performed to evaluate the level of DMTS activity of the modified cell lines expressing individual putative DMTS receptors. A cell line stably expressing a human receptor was generated in a HEK293T cell line for each of the following human receptors: OR2L13, OR4C15, OR5AC2, OR8H3, OR11G2 or OR52N2. The receptors were tagged with a FLAG®-Rho tag combination and stably co-expressed with the human G-protein alpha subunit Gals for the cell based assay. Co-expression of the human Gals activates the Gq transduction pathway that leads to an internal Ca^2+ increase upon binding to the appropriate ligand. Receptors were exposed to increasing concentrations of DMTS. Odorant-induced activity was detected by measuring the Ca^2+ increase in the cytosol using a calcium sensitive fluorescent dye (Molecular Devices, Calcium 5 dye, cat. R8186) and measuring the change in Relative Fluorescence Ratio (RFU) using a fluorometric imaging plate reader (Molecular Devices, FLIPR) following odorant exposure. […] A cell line lacking a receptor was used as a control for non-specific activity at high compound concentrations (‘No receptor’). The activity levels are reported by the potency of the DMTS induced-response for each receptor as a measure of the EC50 value.

In a further experiment the target is T2, human receptor OR4C15 (Homo sapiens, UniProt Q8NGM1).
T2 construct: The receptors were tagged with a FLAG®-Rho tag combination; expressed in transfected cells
The experiment is described as above. The note with it: FIG. 3, Example 3, SEQ ID NO: 30, stable HEK293T. The protocol:
as §1

For the next experiment, the target named is T3, mouse receptor Olfr1097 (Mus musculus, UniProt Q8VGA2).
T3 construct: cAMP HTRF
T3 sequence (Q8VGA2 1-315): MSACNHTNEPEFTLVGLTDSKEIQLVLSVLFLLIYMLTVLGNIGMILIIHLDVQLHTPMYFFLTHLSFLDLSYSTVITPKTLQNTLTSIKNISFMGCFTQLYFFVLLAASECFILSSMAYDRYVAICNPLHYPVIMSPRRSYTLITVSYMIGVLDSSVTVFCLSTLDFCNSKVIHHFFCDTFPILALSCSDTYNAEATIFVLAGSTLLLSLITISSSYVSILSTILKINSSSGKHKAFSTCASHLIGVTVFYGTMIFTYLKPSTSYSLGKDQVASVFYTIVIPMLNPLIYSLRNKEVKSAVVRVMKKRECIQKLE
The experiment can be described thus: cell-based dose-response, cAMP increase by HTRF, HEK293T cells (endogenous RTP1 activated) co-transfected with human Golf, Lucy-FLAG-Rho tagged receptor. The protocol: Functional dose-response experiments were performed to evaluate the level of DMTS activity of the modified cell line expressing individual putative DMTS receptors. Using a cell-based assay, mouse receptor Olfr1193, Olfr1093, Olfr1097, Olrf166, Olfr169, Olfr738 and Olfr742, and human receptor OR4S2 and OR52N5 were tested in an HEK293T cell line wherein the endogenous RTP1 gene has been activated and the odorant receptor chaperone protein was expressed (described in WO2016/201153). The mouse receptor genes were tagged with a Lucy-FLAG®-Rho tag combination and the human receptors were tagged with a Rho-FLAG® tag combination resulting in a tag:receptor fusion protein for the cell based assay. Receptor genes were co-transfected with the canonical olfactory human G-protein alpha subunit Golf gene and were exposed to increasing concentrations of the malodor odorant. Co-expression of the human Golf activates the Gs transduction pathway that leads to an internal cAMP increase upon binding to the appropriate ligand. Odorant-induced activity was detected by measuring the cAMP increase in the cytosol using an Homogeneous Time Resolved Fluorescence (HTRF) based kit (CisBio, cAMP dynamic 2 kit, cat. 62AM4PEJ). […] The activity levels are reported by the potency of the DMTS induced-response for each receptor as a measure of the EC50 value (the effective concentration at which the receptor responds at its half-maximal activation efficacy level for a given compound).
Functional dose-response experiments were performed to confirm the DMTS activity on the DMTS receptors identified in Example 2 and to further characterize their response to DMDS. Using the same cell-based assay described in Example 2, mouse receptors Olfr1193, Olfr1093, Olfr1097, Olfr166, Olfr169, Olfr738, Olfr742 and of human odorant receptor OR4S2 were tested with increasing concentration of DMTS, DMDS or butyric acid (control). […] A weak response for OR4S2 and Olfr169 to butyric acid was visible but was too weak to consider butyric acid as a representative ligand for these receptors. The activity levels are reported by the potency of DMTS or DMDS induced-response for each receptor as a measure of the EC50 value, EC50DMTS and EC50DMDS respectively. […] Competitive antagonists at the malodor binding site of these receptors have the potential to reduce the unpleasant perception of both DMTS and DMDS.
Background: Time-resolved FRET reads energy transfer from a long-lived donor to a nearby acceptor.

The target in another experiment is T4, OR4S2 (Homo sapiens, UniProt Q8NH73).
T4 sequence (Q8NH73 1-311): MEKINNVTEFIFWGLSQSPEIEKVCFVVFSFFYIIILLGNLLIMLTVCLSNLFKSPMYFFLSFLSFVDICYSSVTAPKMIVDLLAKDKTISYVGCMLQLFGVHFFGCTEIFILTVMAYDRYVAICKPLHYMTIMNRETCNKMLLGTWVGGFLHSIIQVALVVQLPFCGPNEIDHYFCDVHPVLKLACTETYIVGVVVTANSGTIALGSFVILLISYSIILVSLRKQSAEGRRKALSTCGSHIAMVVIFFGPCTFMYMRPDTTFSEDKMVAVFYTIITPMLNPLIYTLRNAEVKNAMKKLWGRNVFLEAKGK
The experiment in a line: cell-based dose-response, cAMP increase by HTRF, HEK293T cells (endogenous RTP1 activated) co-transfected with human Golf, Rho-FLAG tagged receptor. On the set-up: the human receptors were tagged with a Rho-FLAG® tag combination; expressed in transfected cells. The protocol: Functional dose-response experiments were performed to evaluate the level of DMTS activity of the modified cell line expressing individual putative DMTS receptors. Using a cell-based assay, mouse receptor Olfr1193, Olfr1093, Olfr1097, Olrf166, Olfr169, Olfr738 and Olfr742, and human receptor OR4S2 and OR52N5 were tested in an HEK293T cell line wherein the endogenous RTP1 gene has been activated and the odorant receptor chaperone protein was expressed (described in WO2016/201153). The mouse receptor genes were tagged with a Lucy-FLAG®-Rho tag combination and the human receptors were tagged with a Rho-FLAG® tag combination resulting in a tag:receptor fusion protein for the cell based assay. Receptor genes were co-transfected with the canonical olfactory human G-protein alpha subunit Golf gene and were exposed to increasing concentrations of the malodor odorant. Co-expression of the human Golf activates the Gs transduction pathway that leads to an internal cAMP increase upon binding to the appropriate ligand. Odorant-induced activity was detected by measuring the cAMP increase in the cytosol using an Homogeneous Time Resolved Fluorescence (HTRF) based kit (CisBio, cAMP dynamic 2 kit, cat. 62AM4PEJ). […]

T2 sequence (Q8NGM1 with tags, fused parts or gaps): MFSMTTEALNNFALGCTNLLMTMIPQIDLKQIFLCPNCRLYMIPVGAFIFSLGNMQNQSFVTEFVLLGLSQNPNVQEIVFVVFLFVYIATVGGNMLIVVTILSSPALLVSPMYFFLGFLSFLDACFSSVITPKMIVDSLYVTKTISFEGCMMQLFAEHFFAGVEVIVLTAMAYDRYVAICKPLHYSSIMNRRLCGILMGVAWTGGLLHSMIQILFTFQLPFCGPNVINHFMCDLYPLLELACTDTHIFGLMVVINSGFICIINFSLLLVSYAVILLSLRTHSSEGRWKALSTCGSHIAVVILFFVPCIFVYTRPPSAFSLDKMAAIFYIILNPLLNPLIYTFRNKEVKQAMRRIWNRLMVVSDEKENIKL

As to `CSSSC` [DMTS, dimethyl trisulfide], the EC50 – broadly, the midpoint of the concentration-response curve – was found to be 5 µM on human receptor OR52N2; 0.8 µM at human receptor OR4C15; 17 µM on mouse receptor Olfr1097 (FIG. 2, Example 2, SEQ ID NO: 6); 18 µM on mouse receptor Olfr1097 (FIG. 5, Example 5, SEQ ID NO: 6); 2 µM at OR4S2 (FIG. 2, Example 2, SEQ ID NO: 42); 0.325 µM at OR4S2 (FIG. 5, Example 5, SEQ ID NO: 42).
